# Laboratory results as given in the supplement of paper PMC10307832.
# Compound: C1COCCN1CC2=CC(=O)C(=CO2)OCCCCCSC3=C4C=CC(=CC4=NC=C3)C(F)(F)F [EHT 1864] + Cc1cc(Nc2cc(N3CCN(C)CC3)nc(Sc3ccc(NC(=O)C4CC4)cc3)n2)n[nH]1 [Tozasertib] (partner 0.1 µM)
# Test: relative viability (nuclei count vs DMSO), 5 days (fraction); higher = more cells survive
# In short: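 Relative viability equals treated-well nuclei counts divided by vehicle-well nuclei counts. Counts came from 4× images of lung cancer cell lines grown in 1536-well plates for 5 days after pin-tool dosing on the day after seeding. Dosing used one drug alone or a fixed anchor-drug dose plus five library-drug doses (not always all listed) in √10 steps, and values are medians of duplicate plates.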
Cell Line,relative viability (first compound 0.04 µM),relative viability (first compound 0.1265 µM),relative viability (first compound 0.4 µM),relative viability (first compound 1.265 µM),relative viability (first compound 4 µM)
NCI-H647,0.218,0.169,0.414,0.175,0.132
NCI-H650,0.671,0.667,0.708,0.642,0.722
NCI-H661,0.385,0.335,0.355,0.33,0.379
NCI-H727,0.574,0.573,0.611,0.503,0.592
NCI-H838,0.244,0.227,0.26,0.241,0.223
NCI-H1355,0.558,0.452,0.582,0.391,0.464
NCI-H1395,0.831,0.65,0.772,0.719,0.723
NCI-H1437,0.428,0.303,0.4,0.343,0.377
NCI-H1648,0.486,0.376,0.396,0.411,0.441
NCI-H1650,,,0.385,0.355,0.242
NCI-H1651,0.631,0.705,0.549,0.479,0.523
NCI-H1666,0.646,0.591,0.543,0.647,0.554
NCI-H1734,0.282,,0.265,0.273,0.259
NCI-H1755,0.606,0.51,0.483,0.487,0.536
NCI-H1793,0.294,,0.341,,0.285
NCI-H1915,0.413,,0.41,0.406,0.392
NCI-H1944,0.283,,0.277,0.234,0.292
NCI-H1975,0.852,0.756,0.599,,0.207
NCI-H1993,0.581,,0.549,0.575,0.536

Cell Line,relative viability (first compound 0.04 µM),relative viability (first compound 0.1265 µM),relative viability (first compound 0.4 µM),relative viability (first compound 1.265 µM),relative viability (first compound 4 µM)
NCI-H2009,0.736,0.648,0.765,0.532,0.476
NCI-H2023,0.281,0.294,0.29,0.248,0.207
NCI-H2085,0.8,,0.791,0.641,0.576
NCI-H2087,0.373,,0.291,0.241,0.202
NCI-H2126,0.839,0.689,0.819,0.8,0.81
NCI-H2170,0.7,0.52,0.775,0.692,0.658
NCI-H2228,0.335,0.332,0.209,0.204,0.16
NCI-H2342,0.541,0.394,0.452,0.491,0.533
NCI-H2347,0.606,0.446,0.501,,0.562
NCI-H2405,0.8,0.678,0.847,0.633,0.726
NCI-H3122,0.358,0.275,0.398,0.398,0.392
PC-3 [JPC-3],0.818,0.812,0.903,0.896,0.843
PC-14,0.607,,0.555,0.623,0.53
RERF-LC-KJ,0.493,0.473,0.523,0.381,0.352
SK-LU-1,0.313,0.286,0.274,0.297,0.293
SK-MES-1,0.972,0.885,0.888,0.823,0.81
SW 1573,0.173,0.158,0.172,0.225,0.154
UMC-11,0.206,,0.2,0.207,0.192
